Experimental data published in ChEMBL document CHEMBL1149146, “Synthesis and biological evaluation of new 1,2-dihydro-4-hydroxy-2-oxo-3-quinolinecarboxamides for treatment of autoimmune disorders: structure-activity relationship” (2004).

Experiments:
Assay type in all cases: functional
[1] = tested on: Mus musculus; assay: Inhibition of acute experimental autoimmune encephalomyelitis in SJL/N mice by 5 mg/kg/day p.o.; conditions: route oral
[2] = tested on: Mus musculus; assay: Inhibition of acute experimental autoimmune encephalomyelitis in SJL/N mice by 0.2 mg/kg/day p.o.; conditions: route oral
[3] = tested on: Mus musculus; assay: Inhibition of acute experimental autoimmune encephalomyelitis (aEAE) induced in SJL/N mice at a dose of 1 mg/kg/day, (po)
[4] = tested on: Mus musculus; assay: Inhibition of acute experimental autoimmune encephalomyelitis in SJL/N mice by 0.2 mg/kg/day p.o./s.c.; conditions: po
[5] = tested on: Mus musculus; assay: Inhibition of acute experimental autoimmune encephalomyelitis in SJL/N mice by 5 mg/kg/day p.o./s.c.; conditions: route oral
[6] = tested on: Mus musculus; assay: Inhibition of acute experimental autoimmune encephalomyelitis (aEAE) induced in SJL/N mice at a dose of 0.2 mg/kg/day, (po) was determined; Inactive
[7] = tested on: Mus musculus; assay: Inhibition of acute experimental autoimmune encephalomyelitis (aEAE) induced in SJL/N mice at a dose of 1 mg/kg/day, (po) was determined; Inactive
[8] = tested on: Mus musculus; assay: Inhibition of acute experimental autoimmune encephalomyelitis (aEAE) induced in SJL/N mice at a dose of 5 mg/kg/day, (sc) was determined; Inactive
[9] = tested on: Mus musculus; assay: Inhibition of acute experimental autoimmune encephalomyelitis in SJL/N mice by 1 mg/kg/day p.o./s.c.; conditions: route oral

Compound | inhibition in vivo at 5 mg/kg/day [1] [%] | inhibition in vivo at 0.2 mg/kg/day [2] [%] | inhibition in vivo at 1 mg/kg/day [3] [%] | inhibition in vivo at 0.2 mg/kg/day [4] [%] | inhibition in vivo at 5 mg/kg/day [5] [%] | inhibition in vivo at 1 mg/kg/day [9] [%] | other results
COc1cccc2c1c(O)c(C(=O)N(C)c1ccccc1F)c(=O)n2C | 100 | 94 | 82 | – | – | – | –
CCc1cccc2c1c(O)c(C(=O)N(CC)c1ccccc1)c(=O)n2C [PAQUINIMOD] | – | 81 | 100 | – | – | – | –
COc1cccc2c1c(O)c(C(=O)N(C)c1ccc(F)cc1F)c(=O)n2C | – | 76 | 88 | – | – | – | –
CCN(C(=O)c1c(O)c2c(SC)cccc2n(C)c1=O)c1ccccc1 | 99 | 51 | 73 | – | – | – | –
COc1cccc2c1c(O)c(C(=O)N(C)c1ccc(F)cc1)c(=O)n2C | – | – | – | 92 | 93 | – | –
COc1ccccc1N(C)C(=O)c1c(O)c2c(OC)cccc2n(C)c1=O | – | – | – | – | – | – | inhibition in vivo at 0.2 mg/kg/day [6]: < 35%; inhibition in vivo at 1 mg/kg/day [7]: < 35%
COc1cccc2c(O)c(C(=O)N(C)c3ccccc3)c(=O)n(C)c12 | – | – | – | – | – | – | inhibition in vivo at 5 mg/kg/day [8]: < 35%
COc1cccc2c1c(O)c(C(=O)N(C)c1cccc(Oc3ccccc3)c1)c(=O)n2C | – | – | – | 47 | 90 | 63 | –
CCCN(C(=O)c1c(O)c2c(Cl)cccc2n(C)c1=O)c1ccccc1 | 100 | 49 | 94 | – | – | – | –
Cc1ccc2c(c1)c(O)c(C(=O)N(C)c1ccccc1)c(=O)n2C | – | – | – | 62 | 100 | 79 | –
COc1cccc2c1c(O)c(C(=O)N(C)c1ccc(Cl)cc1)c(=O)n2C | – | – | – | 77 | 89 | 70 | –
COc1ccc2c(c1)c(O)c(C(=O)N(C)c1ccccc1)c(=O)n2C | – | – | – | 83 | 100 | 100 | –
CCN(C(=O)c1c(O)c2c(OC)cccc2n(C)c1=O)c1ccccc1 | – | – | – | 69 | 86 | 73 | –
C=CCN(C(=O)c1c(O)c2c(Cl)cccc2n(C)c1=O)c1ccccc1 | 81 | – | 59 | – | – | – | –
COc1cccc2c1c(O)c(C(=O)N(C)c1cccc(C(C)(C)C)c1)c(=O)n2C | 84 | 38 | 60 | – | – | – | –
Cc1cccc2c1c(O)c(C(=O)N(C)c1ccccc1)c(=O)n2C | – | – | – | 95 | 97 | 100 | –
CN(C(=O)c1c(O)c2ccc(Oc3ccccc3)cc2n(C)c1=O)c1ccc(F)cc1 | – | – | – | – | – | – | inhibition in vivo at 5 mg/kg/day [8]: < 35%
COc1cccc(N(C)C(=O)c2c(O)c3c(OC)cccc3n(C)c2=O)c1 | – | – | – | 35 | 85 | 90 | –
CCN(C(=O)c1c(O)c2c3c(ccc2n(C)c1=O)OCO3)c1ccccc1 | 99 | 58 | 75 | – | – | – | –
CN(C(=O)c1c(O)c2cc(Cl)ccc2n(C)c1=O)c1ccccc1 | – | – | – | 81 | 100 | 100 | –
CN(C(=O)c1c(O)c2ccc(Cl)cc2n(C)c1=O)c1ccccc1 | – | – | – | – | – | – | inhibition in vivo at 5 mg/kg/day [8]: < 35%
COc1cccc2c1c(O)c(C(=O)N(C)c1cccc(F)c1F)c(=O)n2C | – | – | – | – | – | – | inhibition in vivo at 0.2 mg/kg/day [6]: < 35%; inhibition in vivo at 1 mg/kg/day [7]: < 35%
CCN(C(=O)c1c(O)c2c(F)cccc2n(C)c1=O)c1ccccc1 | – | – | 60 | – | – | – | –
CN(C(=O)c1c(O)c2cc(C(F)(F)F)ccc2n(C)c1=O)c1ccccc1 | – | – | – | 67 | 100 | 100 | –
CCN(C(=O)c1c(O)c2cc(C(F)(F)F)ccc2n(C)c1=O)c1ccccc1 | – | – | 57 | – | – | – | inhibition in vivo at 0.2 mg/kg/day [6]: < 35%

Compound | inhibition in vivo at 5 mg/kg/day [1] [%] | inhibition in vivo at 0.2 mg/kg/day [2] [%] | inhibition in vivo at 1 mg/kg/day [3] [%] | inhibition in vivo at 0.2 mg/kg/day [4] [%] | inhibition in vivo at 5 mg/kg/day [5] [%] | inhibition in vivo at 1 mg/kg/day [9] [%] | other results
CCN(C(=O)c1c(O)c2cc(C)ccc2n(C)c1=O)c1ccccc1 | – | – | – | – | – | – | inhibition in vivo at 0.2 mg/kg/day [6]: < 35%; inhibition in vivo at 1 mg/kg/day [7]: < 35%
CN(C(=O)c1c(O)c2c([N+](=O)[O-])cccc2n(C)c1=O)c1ccccc1 | 100 | 46 | 96 | – | – | – | –
CSc1cccc2c1c(O)c(C(=O)N(C)c1ccccc1)c(=O)n2C | 100 | 94 | 100 | – | – | – | –
CCN(C(=O)c1c(O)c2c(Br)cccc2n(C)c1=O)c1ccccc1 | – | 57 | 95 | – | – | – | –
COc1cccc2c1c(O)c(C(=O)N(C)c1cccc(Cl)c1)c(=O)n2C | 71 | 54 | 85 | – | – | – | –
COc1cccc2c1c(O)c(C(=O)N(C)c1ccccc1)c(=O)n2C | – | – | – | 79 | 96 | 95 | –
COc1ccc2nc(O)c(C(=O)N(C)c3ccc(F)cc3)c(O)c2c1 | – | – | – | – | – | – | inhibition in vivo at 5 mg/kg/day [8]: < 35%
CN(C)c1cccc2c1c(O)c(C(=O)N(C)c1ccccc1)c(=O)n2C | 100 | 58 | 93 | – | – | – | –
COc1cccc2c1c(O)c(C(=O)N(C)c1ccccc1Cl)c(=O)n2C | 68 | – | 50 | – | – | – | inhibition in vivo at 0.2 mg/kg/day [6]: < 35%
CN(C(=O)c1c(O)c2cc(OC(F)(F)F)ccc2n(C)c1=O)c1ccccc1 | – | – | – | 63 | 96 | 72 | –
CC(C)N(C(=O)c1c(O)c2c(Cl)cccc2n(C)c1=O)c1ccccc1 | 70 | – | 54 | – | – | – | inhibition in vivo at 0.2 mg/kg/day [6]: < 35%
COc1cccc2c1c(O)c(C(=O)N(C)c1ccc(C(C)(C)C)cc1)c(=O)n2C | 98 | 60 | 84 | – | – | – | –
CN(C(=O)c1c(O)c2ccccc2n(-c2ccccc2)c1=O)c1ccccc1 | – | – | – | – | – | – | inhibition in vivo at 5 mg/kg/day [8]: < 35%
CN(C(=O)c1c(O)c2cc(F)ccc2n(C)c1=O)c1ccc(F)cc1 | – | – | – | – | 93 | 77 | –
CN(C(=O)c1c(O)c2c(Cl)cccc2n(C)c1=O)c1ccccc1 | – | – | – | 91 | 100 | 99 | –
COc1ccc2c(O)c(C(=O)N(C)c3ccccc3)c(=O)n(C)c2c1 | – | – | – | – | – | – | inhibition in vivo at 5 mg/kg/day [8]: < 35%
CN(C(=O)c1c(O)c2c(C(F)(F)F)cccc2n(C)c1=O)c1ccccc1 | 100 | – | 99 | – | – | – | –
CCN(C(=O)c1c(O)c2c(Cl)cccc2n(C)c1=O)c1ccccc1 [LAQUINIMOD] | – | – | – | 66 | 96 | 92 | –
CCOc1cccc2c1c(O)c(C(=O)N(C)c1ccccc1)c(=O)n2C | 76 | 44 | 40 | – | – | – | –
COc1ccc(N(C)C(=O)c2c(O)c3c(OC)cccc3n(C)c2=O)cc1 | – | 78 | 84 | – | – | – | –
COc1cccc2c1c(O)c(C(=O)N(C)c1cc(F)ccc1F)c(=O)n2C | 95 | 62 | 90 | – | – | – | –
CCN(C(=O)c1c(O)c2c(C(F)(F)F)cccc2n(C)c1=O)c1ccccc1 | – | 49 | 80 | – | – | – | –
CCN(C(=O)c1c(O)c2cc(OC)ccc2n(C)c1=O)c1ccccc1 | – | – | – | 39 | 84 | 37 | –
CN(C(=O)c1c(O)c2cccc(C(F)(F)F)c2n(C)c1=O)c1ccc(Cl)cc1Cl | – | – | – | – | – | – | inhibition in vivo at 5 mg/kg/day [8]: < 35%
COc1cccc2c1c(O)c(C(=O)N(C)c1c(F)cccc1F)c(=O)n2C | – | 28 | 43 | – | – | – | –
